According to the OligoGym collection:
Bases are written 5' to 3'; sugars and linkages follow in the same order, as letters with counts (s phosphorothioate, o phosphodiester; PS: all linkages phosphorothioate). The collection does not say whether C is 5-methylated. l = locked nucleic acid (LNA); d = 2'-deoxy (DNA)

Biological target: Tau
Assay: rat primary cortical neurons, FLIPR, 25 uM ASO

Sequence	calcium oscillation score
TTGCTTTTCCCAATTAT (sugars l4 d11 l2, PS)	54.5 % of control
CATGCTTACACACCAC (sugars l2 d10 l4, PS)	82.9 % of control
TAATCCTGTGCTTCA (sugars l3 d9 l3, PS)	86.7 % of control
TTCCTGCAAATTCTCAA (sugars l4 d10 l3, PS)	61.7 % of control
CTAATTACATTTTTTCTTT (sugars l4 d11 l4, PS)	62.6 % of control
CCTTTGAAAGTCCTTT (sugars l3 d11 l2, PS)	121 % of control
TGTCCTCACTTTACACAT (sugars l4 d12 l2, PS)	39.8 % of control
CTTTTTTTTTCCACACTCTC (sugars l2 d14 l4, PS)	49 % of control
ACAATTCTCAGCACACC (sugars l2 d11 l4, PS)	48.8 % of control
GTCTGAGCTACCAGGA (sugars l3 d10 l3, PS)	11.7 % of control
AACCAACTTTCATCTACTTT (sugars l4 d14 l2, PS)	63 % of control
GTCCCGAGCCAAAG (sugars l3 d8 l3, PS)	0 % of control
TCCTGTGCTTCAGGCC (sugars l3 d10 l3, PS)	75.5 % of control
GGGAGGCAGACACCTCGTCA (sugars l3 d14 l3, PS)	102 % of control
ACAAACAATCCATTTATAT (sugars l4 d11 l4, PS)	46.2 % of control
TCTCAAAAATCAACGCC (sugars l4 d10 l3, PS)	94.5 % of control
TATCATTTTCTTTTTCAAAA (sugars l4 d12 l4, PS)	37.3 % of control
CCCTAAGCTCTCACTA (sugars l2 d12 l2, PS)	69.1 % of control
CGACTTATCTATCCAT (sugars l4 d9 l3, PS)	46.2 % of control
TTCAGGTCTGGCATGG (sugars l3 d10 l3, PS)	1.9 % of control
ATGATTGTGGGCTTA (sugars l3 d9 l3, PS)	7.83 % of control
AAGCAGGTTAAGTGATTAAC (sugars l3 d14 l3, PS)	12.9 % of control

Sequence	calcium oscillation score
TCTAGTTATACAGTTGGCCC (sugars l3 d14 l3, PS)	21.4 % of control
CTCTGTCACTTACTACTC (sugars l3 d13 l2, PS)	80.8 % of control
ACTTTCCTAATTCCCAAATT (sugars l3 d15 l2, PS)	63.3 % of control
TTTCCTGCAAATTCTCA (sugars l4 d10 l3, PS)	66.8 % of control
CAGCTATACTATTTCA (sugars l4 d10 l2, PS)	60.2 % of control
AACCAATTAACCGAAC (sugars l3 d10 l3, PS)	138 % of control
TTTATTTCCAAATTCACTTT (sugars l1 d17 l2, PS)	163 % of control
GCGACTTGTACACG (sugars l3 d8 l3, PS)	63.7 % of control
ACCTCCTAGAACACAAC (sugars l4 d10 l3, PS)	53.9 % of control
AATCCTGTGCTTCA (sugars l3 d8 l3, PS)	9.58 % of control
AACCACTCTTATTCTTTAAA (sugars l4 d12 l4, PS)	91.3 % of control
TAGTAAACACCATCTCT (sugars l3 d10 l4, PS)	71.4 % of control
CCCAGCGTGATCTTCCATCA (sugars l4 d11 l5, PS)	104 % of control
ACCAACTTTCATCTACTTTT (sugars l3 d15 l2, PS)	90.5 % of control
AGACCACATTTCCATCCC (sugars l1 d15 l2, PS)	71.6 % of control
TTTTCCCAATTATTAACCC (sugars l3 d14 l2, PS)	71.4 % of control
CTCTTCCACTACAAGC (sugars l3 d11 l2, PS)	46.2 % of control
AGGTCTGGCATGGGC (sugars l3 d9 l3, PS)	47.6 % of control
GTTAACTCATCAACACC (sugars l4 d10 l3, PS)	86.6 % of control
ATTAATTACACCCCTG (sugars l3 d9 l4, PS)	5.47 % of control
ATTTCCAAATTCACTTTTAC (sugars lldldldddddddddldlll, PS)	122 % of control
TCTTTGAACACCCCATCT (sugars l2 d14 l2, PS)	41 % of control

Sequence	calcium oscillation score
ATCATTTTTTATTCATAACT (sugars l4 d12 l4, PS)	53.4 % of control
CTAATTCCCAAATTCCTCA (sugars l2 d14 l3, PS)	62.1 % of control
CTCCAATCTTACAGAT (sugars l4 d9 l3, PS)	102 % of control
CCACTCCATGTCAATC (sugars l4 d10 l2, PS)	69.3 % of control
CCACCTCATTAAGATCA (sugars l3 d12 l2, PS)	56 % of control
CTAATCCTGTGCTTCA (sugars l3 d10 l3, PS)	100 % of control
ATCAGAGGGTCTGAGC (sugars l3 d10 l3, PS)	59.3 % of control
TTATTTCCAAATTCACTTTT (sugars l4 d11 l2 d1 l2, PS)	104 % of control
GCGACTTGTACACGAT (sugars l3 d10 l3, PS)	32.2 % of control
ATACTCAAATTCTTCCTTT (sugars l3 d12 l4, PS)	74 % of control
AATAGCAAACAGGATA (sugars l3 d10 l3, PS)	82.4 % of control
GGCGTTCTCGCGGAAG (sugars l3 d10 l3, PS)	102 % of control
CACCCTAAACCATGAT (sugars l3 d10 l3, PS)	71.4 % of control
TCTTGGCGGAAGACGG (sugars l3 d10 l3, PS)	100 % of control
CGCCTTTAGTGATTACAGGC (sugars l3 d14 l3, PS)	20.2 % of control
CTTTTGAACCCATTCCAC (sugars l3 d13 l2, PS)	110 % of control
CAGCCTACTTTATTCCCT (sugars l2 d14 l2, PS)	82.2 % of control
CCCACATTTGCAAACCA (sugars l2 d13 l2, PS)	53.9 % of control
TTCATCTACTTTTCAGCT (sugars l4 d12 l2, PS)	47.2 % of control
ATTTCCAAATTCACTTTTAC (sugars lldlldddddddddldldll, PS)	83 % of control
CTACTATTTACTATGCA (sugars l4 d10 l3, PS)	78.4 % of control
ATTTCCAAATTCACTTTTAC (sugars l5 d10 l5, PS)	≥ 200 % of control

Sequence	calcium oscillation score
CCATCCTAAGTCAACCA (sugars l2 d13 l2, PS)	62.8 % of control
CCGCCTTTAGTGATTACAGG (sugars l3 d14 l3, PS)	4.03 % of control
TGGTCAAGGCTTTGGG (sugars l3 d10 l3, PS)	0 % of control
CTTTATTTCCAAATTCACTT (sugars l3 d1 l1 d11 l4, PS)	129 % of control
CCCACCCAAACTCCAAGT (sugars l2 d13 l3, PS)	69.3 % of control
AACTGCGAGGAGCAGC (sugars l3 d10 l3, PS)	25.9 % of control
AATTTATTAATTCATAAATG (sugars l3 d14 l3, PS)	38.3 % of control
TATTATCCTTTGAGCCACAC (sugars l3 d14 l3, PS)	77.4 % of control
GCGTGATCTTCCAT (sugars l3 d8 l3, PS)	182 % of control
ACAGCCTCATAAACCT (sugars l4 d10 l2, PS)	66.8 % of control
TAACCAATTAACCGAACTGC (sugars l3 d14 l3, PS)	125 % of control
CAGAGCTGGGTGGTGTCTTT (sugars l3 d14 l3, PS)	0 % of control
CAGTCCCGTCTTTGCT (sugars l3 d10 l3, PS)	0 % of control
CCCTTAATTTCACCCT (sugars l3 d10 l3, PS)	80.9 % of control
TACCCATCTTAATTCATTTA (sugars l3 d14 l3, PS)	111 % of control
CAGACACCACTGGCGACTTG (sugars l3 d14 l3, PS)	46.5 % of control
ATATTCCACACATAAACAA (sugars l4 d11 l4, PS)	62.8 % of control
TTATTTCCAAATTCACTTTT (sugars lldlddldddddddddllll, PS)	131 % of control
TCATCTTTTCTAGAAC (sugars l4 d8 l4, PS)	77.3 % of control
ACCACATTATCATCCATTCT (sugars l3 d14 l3, PS)	32.2 % of control
AAAATATCCTTACCATCCTA (sugars l3 d14 l3, PS)	75.5 % of control
GGCGCAGGCGCGAGCA (sugars l3 d10 l3, PS)	7.62 % of control

Sequence	calcium oscillation score
CACTGGCGACTTGTACACGA (sugars l3 d14 l3, PS)	5.18 % of control
GGTGCTCTGGTCAA (sugars l3 d8 l3, PS)	102 % of control
TTCTCTAATTGTCCAAT (sugars l4 d9 l4, PS)	64 % of control
ATTATCATCCATTCTGA (sugars l2 d11 l4, PS)	45.6 % of control
TCTTCATTCTTGCCCA (sugars l2 d12 l2, PS)	38.1 % of control
AATACAAACAGCCTCCC (sugars l2 d12 l3, PS)	61.6 % of control
TATTGTCCAGGGACCCAATC (sugars l3 d14 l3, PS)	33.2 % of control
TCGATGCTGCCGGTGG (sugars l3 d10 l3, PS)	33.9 % of control
ATGATTAATTACACCCC (sugars l3 d11 l3, PS)	8.2 % of control
TGATCTTAGGCTGGC (sugars l3 d9 l3, PS)	44.1 % of control
CTTTAATTTAATCACTC (sugars l4 d9 l4, PS)	17.3 % of control
TAATCCTGTGCTTCAG (sugars l3 d10 l3, PS)	75.8 % of control
CCCTTAGACATAACACA (sugars l3 d12 l2, PS)	65.5 % of control
CGGCGCAGGCGCGAGC (sugars l3 d10 l3, PS)	2.71 % of control
GAAAGAGGGCAGCAGG (sugars l3 d10 l3, PS)	0 % of control
CCTCCATTAAGAACCTA (sugars l2 d12 l3, PS)	90.1 % of control
TGGAGCCGATCTTGGACTTG (sugars l3 d14 l3, PS)	0 % of control
CCCCATTCAGATCTATC (sugars l2 d13 l2, PS)	98.8 % of control
TTCCACATTTTACAGTA (sugars l3 d10 l4, PS)	76.6 % of control
TCCCATCACTAGCACTA (sugars l2 d13 l2, PS)	32.8 % of control
CTCTTATCTTTGTTTCTA (sugars l4 d12 l2, PS)	51.1 % of control
